The values that follow come from patent US20230143604A1, “QW DOSING OF GIP RECEPTOR AGONIST PEPTIDE COMPOUNDS AND USES THEREOF” (TAKEDA PHARMACEUTICAL COMPANY LIMITED, priority 2020, published 2023).

Starred links: 1 amine or outer side, 2 acyl side, 3 side chain; linkers in the order of their positions; H or OH if unused. Non-standard residues stand in square brackets, D forms with d. Residues, ends and D or L forms follow the SMILES beside them. Groups on a side chain read outwards from the residue. *: point of attachment. C18 diacid = O=C(O)CCCCCCCCCCCCCCCCC(=O)*; C17 diacid = O=C(O)CCCCCCCCCCCCCCCC(=O)*; γGlu = O=C(O)[C@H](CCC(=O)[*:2])N[*:1]; NMeY = CN[C@@H](Cc1ccc(O)cc1)C(=O)O; AEEA = NCCOCCOCC(=O)O; Aib = CC(C)(N)C(=O)O

This data set is described as follows: physchem. A digest of the protocol:
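3 mg of peptide treated with 100 μL portions of 200 mM phosphate buffer pH 7.4, sonicating/vortexing up to 1 min, with further buffer added until fully dissolved. Solubility then quantified by HPLC.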

`CC[C@H](C)[C@H](NC(=O)[C@H](CO)NC(=O)[C@H](Cc1ccc(O)cc1)NC(=O)[C@H](CC(=O)O)NC(=O)[C@H](CO)NC(=O)[C@@H](NC(=O)[C@H](Cc1ccccc1)NC(=O)[C@@H](NC(=O)CNC(=O)[C@H](CCC(=O)O)NC(=O)C(C)(C)NC(=O)[C@@H](N)Cc1ccc(O)cc1)[C@@H](C)O)[C@@H](C)CC)C(=O)N[C@@H](C)C(=O)N[C@@H](CC(C)C)C(=O)N[C@@H](CC(=O)O)C(=O)N[C@@H](CCCNC(=N)N)C(=O)N[C@H](C(=O)N[C@@H](Cc1c[nH]cn1)C(=O)N[C@@H](CCC(N)=O)C(=O)N[C@@H](CCC(N)=O)C(=O)N[C@@H](CC(N)=O)C(=O)N[C@@H](Cc1ccccc1)C(=O)N[C@H](C(=O)N[C@@H](CC(N)=O)C(=O)N[C@@H](Cc1c[nH]c2ccccc12)C(=O)N[C@@H](CC(C)C)C(=O)N[C@@H](CC(C)C)C(=O)N[C@@H](C)C(=O)N[C@@H](CCC(N)=O)C(=O)N[C@@H](CCCCNC(=O)COCCOCCNC(=O)COCCOCCNC(=O)CC[C@H](NC(=O)CCCCCCCCCCCCCCCCC(=O)O)C(=O)O)C(=O)O)C(C)C)[C@@H](C)CC` [Compound 249] (H-Y[Aib]EGTFISDYSIALDRIHQQNFVNWLLAQK([AEEA-AEEA-γGlu-C18 diacid])-OH; N-terminus and C-terminus assumed) registered a solubility (pH 7.4, aqueous buffer) not below 6.8 mg/mL.

In the case of `CC[C@H](C)[C@H](NC(=O)[C@H](CO)NC(=O)[C@H](Cc1ccc(O)cc1)NC(=O)[C@H](CC(=O)O)NC(=O)[C@H](CO)NC(=O)[C@@H](NC(=O)[C@H](Cc1ccccc1)NC(=O)[C@@H](NC(=O)CNC(=O)[C@H](CCC(=O)O)NC(=O)C(C)(C)NC(=O)[C@H](Cc1ccc(O)cc1)NC)[C@@H](C)O)[C@@H](C)CC)C(=O)N[C@@H](C)C(=O)N[C@@H](CC(C)C)C(=O)N[C@@H](CC(=O)O)C(=O)N[C@@H](CCCNC(=N)N)C(=O)NC(C)(C)C(=O)N[C@@H](C)C(=O)N[C@@H](CCC(N)=O)C(=O)NC(C)(C)C(=O)N[C@@H](CCCCNC(=O)COCCOCCNC(=O)COCCOCCNC(=O)CC[C@H](NC(=O)CC[C@H](NC(=O)CCCCCCCCCCCCCCCC(=O)O)C(=O)O)C(=O)O)C(=O)N[C@@H](Cc1ccccc1)C(=O)N[C@H](C(=O)N[C@@H](CC(N)=O)C(=O)N[C@@H](Cc1c[nH]c2ccccc12)C(=O)N[C@@H](CC(C)C)C(=O)N[C@@H](CC(C)C)C(=O)N[C@@H](C)C(=O)N[C@@H](CCC(N)=O)C(=O)N[C@@H](CO)C(=O)N1CCC[C@H]1C(=O)NCC(=O)O)C(C)C` [Compound 125] (H-[NMeY][Aib]EGTFISDYSIALDR[Aib]AQ[Aib]K([AEEA-AEEA-γGlu-γGlu-C17 diacid])FVNWLLAQSPG-OH), the solubility by setting is: (pH 7.4) not below 15 mg/mL; (pH 7.4, aqueous buffer) not below 30 mg/mL.

For the setting “pH 7.4, aqueous buffer”, `CC[C@H](C)[C@H](NC(=O)[C@H](CCCNC(=N)N)NC(=O)[C@H](CC(=O)O)NC(=O)[C@H](CC(C)C)NC(=O)[C@H](C)NC(=O)[C@@H](NC(=O)[C@H](CO)NC(=O)[C@H](Cc1ccc(O)cc1)NC(=O)[C@H](CC(=O)O)NC(=O)[C@H](CO)NC(=O)[C@@H](NC(=O)[C@H](Cc1ccccc1)NC(=O)[C@@H](NC(=O)CNC(=O)[C@H](CCC(=O)O)NC(=O)C(C)(C)NC(=O)[C@H](Cc1ccc(O)cc1)NC)[C@@H](C)O)[C@@H](C)CC)[C@@H](C)CC)C(=O)N[C@@H](C)C(=O)N[C@@H](CCC(N)=O)C(=O)N[C@@H](CCC(N)=O)C(=O)N[C@@H](CCCCNC(=O)COCCOCCNC(=O)COCCOCCNC(=O)CC[C@H](NC(=O)CC[C@H](NC(=O)CCCCCCCCCCCCCCCCC(=O)O)C(=O)O)C(=O)O)C(=O)N[C@@H](Cc1ccccc1)C(=O)N[C@H](C(=O)N[C@@H](CC(N)=O)C(=O)N[C@@H](Cc1c[nH]c2ccccc12)C(=O)N[C@@H](CC(C)C)C(=O)N[C@@H](CC(C)C)C(=O)N[C@@H](C)C(=O)N[C@@H](CCC(N)=O)C(=O)N[C@@H](CCCNC(=N)N)C(=O)NCC(=O)O)C(C)C` [Compound 286] (H-[NMeY][Aib]EGTFISDYSIALDRIAQQK([AEEA-AEEA-γGlu-γGlu-C18 diacid])FVNWLLAQRG-OH) returned a solubility of less than 6 mg/mL.

On to `CC[C@H](C)[C@H](NC(=O)[C@H](CO)NC(=O)[C@H](Cc1ccc(O)cc1)NC(=O)[C@H](CC(=O)O)NC(=O)[C@H](CO)NC(=O)[C@@H](NC(=O)[C@H](Cc1ccccc1)NC(=O)[C@@H](NC(=O)CNC(=O)[C@H](CCC(=O)O)NC(=O)C(C)(C)NC(=O)[C@H](Cc1ccc(O)cc1)NC)[C@@H](C)O)[C@@H](C)CC)C(=O)N[C@@H](C)C(=O)N[C@@H](CC(C)C)C(=O)N[C@@H](CC(=O)O)C(=O)N[C@@H](CCCNC(=N)N)C(=O)NC(C)(C)C(=O)N[C@@H](CCCCNC(=O)COCCOCCNC(=O)COCCOCCNC(=O)CC[C@H](NC(=O)CC[C@H](NC(=O)CCCCCCCCCCCCCCCC(=O)O)C(=O)O)C(=O)O)C(=O)N[C@@H](CCC(N)=O)C(=O)NC(C)(C)C(=O)N[C@@H](CC(N)=O)C(=O)N[C@@H](Cc1ccccc1)C(=O)N[C@H](C(=O)N[C@@H](CC(N)=O)C(=O)N[C@@H](Cc1c[nH]c2ccccc12)C(=O)N[C@@H](CC(C)C)C(=O)N[C@@H](CC(C)C)C(=O)N[C@@H](C)C(=O)N[C@@H](CCC(N)=O)C(=O)N[C@@H](CO)C(=O)NCC(=O)NCC(=O)NCC(=O)NCC(=O)N[C@@H](CO)C(N)=O)C(C)C` [Compound 31] (H-[NMeY][Aib]EGTFISDYSIALDR[Aib]K([AEEA-AEEA-γGlu-γGlu-C17 diacid])Q[Aib]NFVNWLLAQSGGGGS-NH2), for which the solubility reads like this: (pH 7.4) not below 15 mg/mL; (pH 7.4, aqueous buffer) not below 30 mg/mL.

Consider `CC[C@H](C)[C@H](NC(=O)[C@H](Cc1ccccc1)NC(=O)[C@@H](NC(=O)CNC(=O)[C@H](CCC(=O)O)NC(=O)C(C)(C)NC(=O)[C@H](Cc1ccc(O)cc1)NC)[C@@H](C)O)C(=O)N[C@@H](CO)C(=O)N[C@@H](CC(=O)O)C(=O)N[C@@H](Cc1ccc(O)cc1)C(=O)N[C@@H](CO)C(=O)N[C@H](C(=O)NC(C)(C)C(=O)N[C@@H](CC(C)C)C(=O)N[C@@H](CC(=O)O)C(=O)N[C@@H](CCCNC(=N)N)C(=O)NC(C)(C)C(=O)N[C@@H](C)C(=O)N[C@@H](CCC(N)=O)C(=O)NC(C)(C)C(=O)N[C@@H](CCCCNC(=O)COCCOCCNC(=O)COCCOCCNC(=O)CC[C@H](NC(=O)CC[C@H](NC(=O)CCCCCCCCCCCCCCCCC(=O)O)C(=O)O)C(=O)O)C(=O)N[C@@H](Cc1ccccc1)C(=O)N[C@H](C(=O)N[C@@H](CC(N)=O)C(=O)N[C@@H](Cc1c[nH]c2ccccc12)C(=O)N[C@@H](CC(C)C)C(=O)N[C@@H](CC(C)C)C(=O)N[C@@H](C)C(=O)N[C@@H](CCC(N)=O)C(=O)N[C@@H](CO)C(=O)N1CCC[C@H]1C(=O)NCC(=O)O)C(C)C)[C@@H](C)CC` [Compound 85] (H-[NMeY][Aib]EGTFISDYSI[Aib]LDR[Aib]AQ[Aib]K([AEEA-AEEA-γGlu-γGlu-C18 diacid])FVNWLLAQSPG-OH), for which the solubility runs as follows: (pH 7.4) not below 15 mg/mL; (pH 7.4, aqueous buffer) not below 30 mg/mL.

Turning to `CC[C@H](C)[C@H](NC(=O)[C@H](Cc1ccccc1)NC(=O)[C@@H](NC(=O)CNC(=O)[C@H](CCC(=O)O)NC(=O)C(C)(C)NC(=O)[C@@H](N)Cc1ccc(O)cc1)[C@@H](C)O)C(=O)N[C@@H](CO)C(=O)N[C@@H](CC(=O)O)C(=O)N[C@@H](Cc1ccc(O)cc1)C(=O)N[C@@H](CO)C(=O)N[C@H](C(=O)NC(C)(C)C(=O)N[C@@H](CC(C)C)C(=O)N[C@@H](CC(=O)O)C(=O)N[C@@H](CCCCN)C(=O)N[C@@H](C)C(=O)N[C@@H](C)C(=O)N[C@@H](CCC(N)=O)C(=O)N[C@@H](C)C(=O)N[C@@H](CCCCNC(=O)COCCOCCNC(=O)COCCOCCNC(=O)CC[C@H](NC(=O)CC[C@H](NC(=O)CCCCCCCCCCCCCCCCC(=O)O)C(=O)O)C(=O)O)C(=O)N[C@@H](Cc1ccccc1)C(=O)N[C@H](C(=O)N[C@@H](CCC(=O)O)C(=O)N[C@@H](Cc1c[nH]c2ccccc12)C(=O)N[C@@H](CC(C)C)C(=O)N[C@@H](CC(C)C)C(=O)N[C@@H](C)C(=O)N[C@@H](CCC(N)=O)C(=O)N[C@@H](CCCNC(=N)N)C(=O)NCC(=O)O)C(C)C)[C@@H](C)CC` [Compound 168] (H-Y[Aib]EGTFISDYSI[Aib]LDKAAQAK([AEEA-AEEA-γGlu-γGlu-C18 diacid])FVEWLLAQRG-OH), the solubility by setting is: (pH 7.4) not below 15 mg/mL; (pH 7.4, aqueous buffer) not below 30 mg/mL.

`CC[C@H](C)[C@H](NC(=O)[C@H](CO)NC(=O)[C@H](Cc1ccc(O)cc1)NC(=O)[C@H](CC(=O)O)NC(=O)[C@H](CO)NC(=O)[C@@H](NC(=O)[C@H](Cc1ccccc1)NC(=O)[C@@H](NC(=O)CNC(=O)[C@H](CCC(=O)O)NC(=O)C(C)(C)NC(=O)[C@H](Cc1ccc(O)cc1)NC)[C@@H](C)O)[C@@H](C)CC)C(=O)N[C@@H](C)C(=O)N[C@@H](CC(C)C)C(=O)N[C@@H](CC(=O)O)C(=O)N[C@@H](CCCCN)C(=O)N[C@@H](C)C(=O)N[C@@H](C)C(=O)N[C@@H](CCC(N)=O)C(=O)NC(C)(C)C(=O)N[C@@H](CCCCNC(=O)COCCOCCNC(=O)COCCOCCNC(=O)CC[C@H](NC(=O)CC[C@H](NC(=O)CCCCCCCCCCCCCCCCC(=O)O)C(=O)O)C(=O)O)C(=O)N[C@@H](Cc1ccccc1)C(=O)N[C@H](C(=O)N[C@@H](CCC(=O)O)C(=O)N[C@@H](Cc1c[nH]c2ccccc12)C(=O)N[C@@H](CC(C)C)C(=O)N[C@@H](CC(C)C)C(=O)N[C@@H](C)C(=O)N[C@@H](CCC(N)=O)C(=O)N[C@@H](CCCNC(=N)N)C(=O)NCC(=O)O)C(C)C` [Compound 174] (H-[NMeY][Aib]EGTFISDYSIALDKAAQ[Aib]K([AEEA-AEEA-γGlu-γGlu-C18 diacid])FVEWLLAQRG-OH): the solubility by setting is: (pH 7.4) not below 15 mg/mL; (pH 7.4, aqueous buffer) not below 30 mg/mL.
